# Structures can show the parent of a compound that is named as a salt.
# How the values were obtained:
# [1] = tested on: Ku70-Ku80 full length (KuFL, His-Ku80) (human); test: switchSENSE; conditions: Single-molecule: 20 mM Tris pH 7.5, 100 mM KCl, 2.5 mM MgCl2, 1 mg/mL BSA, 2 mM DTT, 0.8% glucose, 0.1% Trolox, 1% GLOX, 1 nM Ku, switchSENSE (15-240 nM Ku) …
# [2] = tested on: HEK-293T cells; test: Dual dEJ/HR reporter assay; assay type: cell-based, human; conditions: versus control without inhibitors; for expression of the HR marker BFP / HR activity: NU7441 3 μM or B02 10 μM
# Description: The dEJ-HR dual reporter substrate for both direct end-joining and homologous recombination was assembled into the pEGFP-N1 vector (Clontech) following sequential insertion of various PCR products, oligonucleotide linkers and synthetic DNA fragments (see Supplementary Information for a detailed description). The Cas9 and guide RNA co-expression plasmid used to cleave the reporter substrate was generated by inserting the pre-annealed gRNA-dEJ-HR-F and gRNA-dEJ-HR-R oligonucleotides into the BbsI restriction sites of pX330-U6-Chimeric_BB-CBh-hSpCas9 (a gift from Feng Zhang; Addgene plasmid # 42230; http://n2t.net/addgene:42230; RRID:Addgene_42230). The pmCherry-NLS plasmid (a gift from Martin Offterdinger; Addgene plasmid # 39319; http://n2t.net/addgene:39319; RRID:Addgene_39319) was used as an internal control of transfection efficiency in end-joining assays.
# Cell lines and cultures are described in Figure 5 legend. HEK-293T cells were seeded in 6-well plates and transfected 24 h later with a mix of reporter substrate (500 ng), Cas9/gRNA expressing vector (300 ng) and pmCherry-NLS control plasmid (200 ng) using JetPEI (PolyPlus-Transfection, Illkirch-Graffenstaden, France). When indicated, cells were treated at the time of transfection with 3 μM DNA-PK inhibitor NU7441 (Tocris, Bristol, UK) or 10 μM Rad51 inhibitor B02 (Sigma-Aldrich St. Louis, MO). Cells were trypsinized 2 days post-transfection, washed with PBS and analysed by flow cytometry on a Fortessa X-20 cell analyzer (BD Biosciences). For each cell population, the integrated fluorescence signal (% positive cells × mean fluorescence) was calculated for each repair readout (i.e. GFP for direct end-joining and BFP for gene conversion) and normalized to that of transfection control (mCherry). Western blots, antibodies, oligonucleotides, plasmids and DNA manipulations, generation of U2OS shKu80 cells and generation of HEK-293T mAID-Ku70/mAID-Ku80 cells are described in Supplemental Information.
# [3] = target: T1, KuFL (full-length human Ku70–Ku80 heterodimer) (Homo sapiens, UniProt P12956+P13010); test: Isothermal titration calorimetry (ITC), KuFL with IP6 and IP6 analogues; assay type: binding; conditions: 25 °C, Ku 4 µM in cell, IPs 40 µM in syringe
# T1 construct: The full-length human Ku heterodimer subunits (Ku70 1–609, Ku80 1–732); 10x His-tag with TEV site (N); made in house; host or cells: Sf21 insect cells (baculovirus, MultiBac)
# Protocol: Purification of Ku full-length (KuFL) for cryo-EM experiments was carried out as described previously ([5]). Expression and purification of KuFL for biophysical experiments was carried out as described previously ([20]). The full-length human Ku heterodimer subunits (Ku70 1–609, Ku80 1–732) were cloned into a Multibac vector ([21]). The construct has a 10× His-tag and a TEV site on the N-terminus of Ku80 and no-tag on Ku70. Protein production was initiated in Sf21 cells by infection with the baculovirus stock at MOI of 5 × 10^−3 and cells were collected 5–6 days after the infection (3–4 days after the proliferation arrest). Cells were sonicated and the supernatant was incubated with Benzonase (300 units for 30 min at 4°C). The Ku heterodimer was purified on a NiNTA-Agarose affinity column (Protino, Macherey Nagel) with a 1 M NaCl wash step to remove DNA excess. The eluted Ku was then bound onto an anion exchange column (Resource Q, Cytiva) equilibrated in 20 mM Tris pH 8.0, 50 mM NaCl, 50 mM KCl, 10 mM β-mercaptoethanol and eluted with a salt gradient. The final yield was about 20 mg of purified heterodimer per litre of culture. KuΔC constructs, heterodimer deleted of its C-terminal region (Ku70 1–544, Ku80 1–551) for X-ray crystallography, Ku mutants, Ku-2E (Ku with mutation in K357E on Ku70 and K481E on Ku80) and Ku-4E (Ku with mutations in H359E and H360E on Ku70 and K413E and H414E on Ku80) were cloned in the same vector and produced following the same protocol as KuFL expressed in Sf21 insect cells.
# Calorimetry. Interactions between KuFL and inositol phosphates (IPs) (IP6 and IP6 analogues) were determined by Isothermal Titration Calorimetry (ITC) using a VP-ITC calorimeter (Malvern). Prior to measurements, all solutions were degassed under vacuum. The reaction cell of the ITC (volume 1.8 mL) was loaded with Ku heterodimers at 4 µM concentration. […] The free energy of binding (ΔG) and the entropy (ΔS) were determined using the classical thermodynamic formula, ΔG = - RT ln(Ka) and ΔG = ΔH - TΔS. […]
# [4] = tested on: HEK-293T cells expressing Ku-wt; test: Cell fractionation and western blot of chromatin and soluble fractions; assay type: cell-based, human; conditions: 1 h
# Protocol: Stock solution of Calicheamicin γ1 (Cali), gift from P.R. Hamann (Wyeth Research, Pearl River, NY, USA), was made at 40 μM in ethanol and stored at –20°C. For drug-exposure, exponentially growing cells in […] were either mock-treated or treated with Cali in fresh medium for 1 h at 37°C. Then cells were washed with phosphate-buffered saline and trypsinized. Pellets were fractionated as follows. Cells were first resuspended for 7 min on ice in 120 μL of extraction buffer 1 (50 mM HEPES pH 7.5, 150 mM NaCl, 1 mM EDTA) containing 0.1% Triton X-100 and supplemented with the Halt protease and phosphatase inhibitor cocktail (Thermo Fisher Scientific) with intermittent gentle vortexing. […] Protein content was measured with BCA reagent (Pierce) and equivalent protein amounts were denaturated in loading buffer at 1× final concentration (50 mM Tris–HCl pH 6.8, 10% glycerol, 1% SDS, 300 mM 2-mercaptoethanol, 0.01% bromophenol blue) at 95°C for 5 min, separated on SDS-PAGE gels (BioRad 4–15% TGX pre-cast gels) before overnight transfer onto Immobilon-P polyvinylidene difluoride (PVDF, Millipore) membranes. […]
# [5] = target: full-length human Ku70–Ku80 heterodimer (KuFL), expressed in Sf21 insect cells (human) (UniProt P12956); test: switchSENSE; fluorescent DNA hybridised on the gold surface of the chip, Ku bound to this DNA in saturating conditions, then XLF injected (1, 2 and 8 μM); 20 μM IP6 during Ku association and XLF titration; biphasic, two steps binding mode fit; apparent affinities
# [6] = target: full-length human Ku70–Ku80 heterodimer (KuFL), expressed in Sf21 insect cells (human) (UniProt P12956); test: switchSENSE; fluorescent DNA hybridised on the gold surface of the chip, Ku bound to this DNA in saturating conditions, then XLF injected (1, 2 and 8 μM); absence of IP6; biphasic, two steps binding mode fit; apparent affinities
# full-length human Ku70–Ku80 heterodimer (KuFL), expressed in Sf21 insect cells (human), sequence (P12956 whole entry, chain 1 of 2): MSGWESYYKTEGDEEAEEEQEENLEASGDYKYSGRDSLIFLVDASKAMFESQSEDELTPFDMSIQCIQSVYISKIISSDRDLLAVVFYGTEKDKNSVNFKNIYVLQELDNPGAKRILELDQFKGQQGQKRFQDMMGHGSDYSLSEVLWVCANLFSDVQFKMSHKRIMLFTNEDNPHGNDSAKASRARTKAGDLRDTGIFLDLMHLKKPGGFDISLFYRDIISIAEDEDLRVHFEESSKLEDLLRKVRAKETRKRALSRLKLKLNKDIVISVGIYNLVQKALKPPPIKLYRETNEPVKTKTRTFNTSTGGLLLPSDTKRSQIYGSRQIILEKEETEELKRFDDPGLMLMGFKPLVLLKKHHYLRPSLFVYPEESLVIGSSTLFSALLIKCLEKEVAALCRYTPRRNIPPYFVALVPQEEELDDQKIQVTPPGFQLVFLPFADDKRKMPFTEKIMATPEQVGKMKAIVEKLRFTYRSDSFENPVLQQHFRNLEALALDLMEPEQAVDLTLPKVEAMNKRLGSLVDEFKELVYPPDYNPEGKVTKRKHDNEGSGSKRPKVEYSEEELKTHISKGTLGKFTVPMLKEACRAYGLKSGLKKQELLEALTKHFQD
# full-length human Ku70–Ku80 heterodimer (KuFL), expressed in Sf21 insect cells (human), sequence (P13010 whole entry, chain 2 of 2, further chain): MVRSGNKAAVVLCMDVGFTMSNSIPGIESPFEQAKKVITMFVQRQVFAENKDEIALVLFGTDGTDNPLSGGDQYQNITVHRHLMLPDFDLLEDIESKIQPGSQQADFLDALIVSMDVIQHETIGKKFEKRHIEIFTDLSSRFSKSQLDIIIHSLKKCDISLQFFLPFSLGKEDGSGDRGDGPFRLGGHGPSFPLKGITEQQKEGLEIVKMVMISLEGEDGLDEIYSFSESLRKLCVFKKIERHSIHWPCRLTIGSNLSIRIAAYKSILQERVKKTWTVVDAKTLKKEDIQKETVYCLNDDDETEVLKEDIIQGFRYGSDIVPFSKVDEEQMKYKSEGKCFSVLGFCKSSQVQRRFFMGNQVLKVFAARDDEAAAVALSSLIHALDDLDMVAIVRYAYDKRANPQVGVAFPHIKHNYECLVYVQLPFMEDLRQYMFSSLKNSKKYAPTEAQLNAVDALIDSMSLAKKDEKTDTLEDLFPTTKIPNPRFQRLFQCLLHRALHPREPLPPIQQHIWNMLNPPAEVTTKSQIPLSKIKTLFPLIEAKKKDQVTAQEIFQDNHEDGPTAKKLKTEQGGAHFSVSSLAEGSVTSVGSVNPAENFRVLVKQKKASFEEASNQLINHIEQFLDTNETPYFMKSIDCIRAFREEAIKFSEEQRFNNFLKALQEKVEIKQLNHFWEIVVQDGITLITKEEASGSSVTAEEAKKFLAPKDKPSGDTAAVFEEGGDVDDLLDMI
# XLF, sequence (Q9H9Q4 whole entry): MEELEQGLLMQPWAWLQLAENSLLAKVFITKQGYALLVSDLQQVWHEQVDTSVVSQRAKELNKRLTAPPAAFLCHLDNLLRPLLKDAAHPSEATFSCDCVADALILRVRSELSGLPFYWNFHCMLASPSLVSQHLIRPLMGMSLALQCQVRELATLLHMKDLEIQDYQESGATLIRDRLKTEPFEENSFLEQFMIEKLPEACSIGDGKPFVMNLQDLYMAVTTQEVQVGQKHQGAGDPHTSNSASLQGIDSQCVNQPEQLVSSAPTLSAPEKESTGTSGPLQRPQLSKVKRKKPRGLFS
# T1 sequence (P12956 whole entry): as the sequence (P12956 whole entry, chain 1 of 2) above
# T1 sequence (P13010 whole entry): as the sequence (P13010 whole entry, chain 2 of 2, further chain) above
molecule,measurement,setting,value
48 bp dsDNA (switchSENSE),Kd,"[1]; 3 uM IP6, kon 6.35e5 M-1 s-1, koff 1.27e-3 s-1",1.99 nM
same,Kd,"[1]; no IP6, kon 6.94e5 M-1 s-1, koff 2.26e-3 s-1",3.25 nM
O=c1c2ccccc2nc(/C=C/c2cccnc2)n1Cc1ccccc1 [B02],expression of the HR marker BFP / HR activity,[2],decreased
"O=P(O)(O)OC1C(OP(=O)(O)O)C(OP(=O)(O)O)C(OP(=O)(O)O)C(OP(=O)(O)O)C1OP(=O)(O)O [D-chiro-IP6, D-chiro-inositol 1,2,3,4,5,6-hexakisphosphate sodium salt]",Kd,[3],22 ± 6.8 nM
O=c1cc(N2CCOCC2)oc2c(-c3cccc4c3sc3ccccc34)cccc12 [NU7441],expression of the HR marker BFP / HR activity,[2],compensatory increase in HR
same,expression of the direct EJ (dEJ) marker GFP,[2]; NU7441 3 μM,decreased
"O=P(O)(O)O[C@H]1[C@H](OP(=O)(O)O)[C@@H](OP(=O)(O)O)[C@H](OP(=O)(O)O)[C@@H](OP(=O)(O)O)[C@H]1OP(=O)(O)O [scyllo-IP6, scyllo-inositol hexakisphosphate sodium salt]",Kd,[3],18 ± 2.5 nM
Calicheamicin γ1,"XLF, Lig4 and PAXX in the soluble proteins fraction",[4]; highest dose of calicheamicin,depleted from the soluble proteins fraction
same,NHEJ proteins including XLF and PAXX in the chromatin fraction,[4]; increasing concentrations of calicheamicin,increasingly detected in the chromatin fraction
XLF (from UniProt Q9H9Q4 1-299) (natural protein),"KD1 (first of two apparent affinities, biphasic fit; with 20 μM IP6)",[5],1.2 µM
same,"KD2 (second of two apparent affinities, biphasic fit; with 20 μM IP6)",[5],0.13 µM
same,"KD1 (first of two apparent affinities, biphasic fit; without IP6)",[6],3.6 µM
same,"KD2 (second of two apparent affinities, biphasic fit; without IP6)",[6],1.9 µM

# Reference: paper PMC10682503, “Structural and functional basis of inositol hexaphosphate stimulation of NHEJ through stabilization of Ku-XLF interaction” (Nucleic Acids Research, 2023)
